Experimental data from PubChem BioAssay AID1745844 (Carcinogenic Potency Database (CPDB), 2022).
Active and inactive are the calls of the source. The rule behind the calls is not given here.

Test system: rodent lifetime carcinogenesis bioassay, tumor incidence TD50
Experiment: carcinogenic potency in animals, long-term in vivo studies, CPDB compilation (AID 1745844)

## CN1CCCC1=O
mouse, strain B6C3F1, females, in feed, site: any site (literature study), lesion: benign tumor, dosed 78 weeks, study length 78 weeks
  TD50: 3440 mg/kg/day
mouse, strain B6C3F1, females, in feed, site: any site (literature study), lesion: malignant tumor, dosed 78 weeks, study length 78 weeks
  TD50: 14900 mg/kg/day
mouse, strain B6C3F1, females, in feed, site: liver, lesion: hepatocellular adenoma, dosed 78 weeks, study length 78 weeks
  TD50: 3320 mg/kg/day
mouse, strain B6C3F1, females, in feed, site: liver, lesion: hepatocellular carcinoma, dosed 78 weeks, study length 78 weeks
  TD50: 7330 mg/kg/day
mouse, strain B6C3F1, males, in feed, site: any site (literature study), lesion: benign tumor, dosed 78 weeks, study length 78 weeks
  TD50: 1630 mg/kg/day
mouse, strain B6C3F1, males, in feed, site: any site (literature study), lesion: malignant tumor, dosed 78 weeks, study length 78 weeks
  TD50: 2270 mg/kg/day
mouse, strain B6C3F1, males, in feed, site: liver, lesion: hepatocellular adenoma, dosed 78 weeks, study length 78 weeks
  TD50: 1760 mg/kg/day
mouse, strain B6C3F1, males, in feed, site: liver, lesion: hepatocellular carcinoma, dosed 78 weeks, study length 78 weeks
  TD50: 1480 mg/kg/day
mouse, strain B6C3F1, males, in feed, site: lung, lesion: adenoma, dosed 78 weeks, study length 78 weeks
  TD50: 4080 mg/kg/day
rat, strain Charles River CD (Sprague-Dawley), females, in feed, site: any site (literature study), lesion: several types, types named in the paper, dosed 104 weeks, study length 104 weeks
  carcinogen call: negative (inactive)
rat, strain Charles River CD (Sprague-Dawley), females, in feed, site: liver, lesion: several types, types named in the paper, dosed 104 weeks, study length 104 weeks
  carcinogen call: negative (inactive)
rat, strain Charles River CD (Sprague-Dawley), females, inhaled, site: liver, lesion: one or several types, types not named, dosed 104 weeks, study length 104 weeks
  carcinogen call: negative (inactive)
rat, strain Charles River CD (Sprague-Dawley), males, in feed, site: any site (literature study), lesion: several types, types named in the paper, dosed 104 weeks, study length 104 weeks
  TD50: 6060 mg/kg/day (inactive)
rat, strain Charles River CD (Sprague-Dawley), males, in feed, site: liver, lesion: several types, types named in the paper, dosed 104 weeks, study length 104 weeks
  TD50: 58500 mg/kg/day (inactive)
rat, strain Charles River CD (Sprague-Dawley), males, inhaled, site: liver, lesion: one or several types, types not named, dosed 104 weeks, study length 104 weeks
  carcinogen call: negative (inactive)
